Test results reported in patent publication US9234230B2, “Screening method and compounds for modulating telomerase activity” (The Wistar Institute, priority 2010, dated 2016).

System: TERT protein
Assay: Fluorescence polarization binding assay (inhibitory activity of selected Table 9 compounds)
Parameters: species or system Tribolium castaneum
Settings: TERT-Chim21m complex 250 nM, cyanine 5-dCTP 10 nM, footnote: observed value corresponds to 50% of the actual inhibition value; for Inhibition at 5 μM (%)*: compound 5 μM; for Inhibition at 50 μM (%)*: compound 50 μM
Method: The TERT protein was expressed and purified as described herein. Protein was concentrated to 4.72 mg ml-l using an AMICON 30K cutoff filter (Millipore) and stored at −80° C. for binding assays.
For the binding assay, TERT protein was diluted to a 500 nM concentration in a solution of 50 mM Tris-HCl, pH 7.5, 200 mM KCl, and 20% glycerol. A 1.2-fold molar excess of the Chim21m RNA-DNA hybrid (Integrated DNA Technologies), containing the template for telomere extension (5′-rCrUrG rArCrC rUrGrA rCTT CGG TCA GGT-3′; SEQ ID NO:19), was then added to these samples and kept on ice. The cyanine 5-dCTP (Perkin Elmer) for the binding study was made up to a 20 nM concentration in sterile, RNase, DNase free water with […].
Compound screens were carried out as 30.5 μl reactions in a 384-well, round bottom plate (Thermo). Fifteen μl of TERT-Chim21m complex was first added to each well. Then 0.5 μl of library compound (ChemBridge) was added to this solution. Finally, 15 μl of the nucleotide-MgCl2 sample was added, and the solution mixed to provide final concentrations of 250 nM protein-nucleic acid, 10 nM cyanine 5-dCTP, and […]. Final compound concentrations were 50 μM and 5 μM. All additions were completed using a Janus 96/384 Modular Dispensing Tool (Perkin Elmer), performed in triplicate, and equilibrated for 40 minutes. Fluorescence polarization was measured at λex=620 nm and λem=688 nm on an EnVision Xcite Multilabel plate reader (Perkin Elmer). Polarization was calculated using the standard equation: P=(V−H)/(V+H), where P denotes polarization, V denotes vertical emission intensity, and H denotes horizontal emission intensity.

| SMILES | Inhibition at 5 μM (%)* [%] | Inhibition at 50 μM (%)* [%] |
| --- | --- | --- |
| CC(C(=O)Nn1cnnc1)N1C(=O)c2ccccc2C1=O (stereo not drawn) [2-(1,3-dioxo-1,3-dihydro-2H-isoindol-2-yl)-N-4H-1,2,4-triazol-4-ylpropanamide] | 4.74 | 27.38 |
| CCOc1cc(CNCc2ccco2)cc(Br)c1OCC(N)=O.Cl [2-(2-bromo-6-ethoxy-4-{[(2-furylmethyl)amino]methyl}phenoxy)acetamide hydrochloride] | 16.14 | 30.92 |
| COc1cc(CNCCc2ccccc2)cc(Br)c1OCC(N)=O [2-(2-bromo-6-methoxy-4-{[(2-phenylethyl)amino]methyl}phenoxy)acetamide] | 12.21 | 27.65 |
| CCOc1cc(CNCc2cccs2)cc(Cl)c1OCC(N)=O.Cl [2-(2-chloro-6-ethoxy-4-{[(2-thienylmethyl)amino]methyl}phenoxy)acetamide hydrochloride] | 17.68 | 49.10 |
| CCOc1cc(CNCc2cccnc2)cc(Cl)c1OCC(N)=O.Cl [2-(2-chloro-6-ethoxy-4-{[(3-pyridinylmethyl)amino]methyl}phenoxy)acetamide hydrochloride] | 14.87 | 38.78 |
| COc1cc(CNc2ccc3[nH]c(=O)[nH]c3c2)cc(Cl)c1OCC(N)=O [2-(2-chloro-6-methoxy-4-{[(2-oxo-2,3-dihydro-1H-benzimidazol-5-yl)amino]methyl}phenoxy)acetamide] | 15.94 | 29.33 |
| COc1cc(CNCc2cccs2)cc(Cl)c1OCC(N)=O.Cl [2-(2-chloro-6-methoxy-4-{[(2-thienylmethyl)amino]methyl}phenoxy)acetamide hydrochloride] | 10.94 | 41.26 |

Other lines, results leading:

| Inhibition at 5 μM (%)* [%] | Inhibition at 50 μM (%)* [%] | SMILES |
| --- | --- | --- |
| 23.05 | 45.56 | COc1cc(CNCc2ccncc2)cc(Cl)c1OCC(N)=O.Cl [2-(2-chloro-6-methoxy-4-{[(4-pyridinylmethyl)amino]methyl}phenoxy)acetamide hydrochloride] |
| 18.27 | 30.23 | COc1cc(CNCCN2CCOCC2)cc(Br)c1OCC(N)=O.Cl.Cl [2-[2-bromo-6-methoxy-4-({[2-(4-morpholinyl)ethyl]amino}methyl)phenoxy]acetamide dihydrochloride] |
| 10.94 | 29.35 | Cc1ccc(C(=O)Nn2cnnc2)c(Cl)c1 [2-chloro-4-methyl-N-4H-1,2,4-triazol-4-ylbenzamide] |
| 17.00 | 31.30 | CNCc1cc(Cl)c(OCC(N)=O)c(OC)c1.Cl [2-{2-chloro-6-methoxy-4-[(methylamino)methyl]phenoxy}acetamide hydrochloride] |
| 13.73 | 35.18 | COc1cc(CNC2C3CC4CC(C3)CC2C4)cc(Cl)c1OCC(N)=O (stereo not drawn) [2-{4-[(2-adamantylamino)methyl]-2-chloro-6-methoxyphenoxy}acetamide] |
| 4.96 | 29.96 | COc1cc(CNCc2ccccc2)cc(Cl)c1OCC(N)=O.Cl [2-{4-[(benzylamino)methyl]-2-chloro-6-methoxyphenoxy}acetamide hydrochloride] |
| 18.11 | 36.58 | NC(=O)CCN1C(=O)c2cccc3cccc(c23)C1=O [3-(1,3-dioxo-1H-benzo[de]isoquinolin-2(3H)-yl)propanamide] |
| 11.97 | 30.04 | O=C(Nn1cnnc1)c1cc(Br)ccc1Cl [5-bromo-2-chloro-N-4H-1,2,4-triazol-4-ylbenzamide] |
| 6.67 | 29.71 | CC(O)CNC(=O)C(=O)Nc1ccc2c(c1)OCO2 (stereo not drawn) [N-1,3-benzodioxol-5-yl-N′-(2-hydroxypropyl)ethanediamide] |
| 13.44 | 30.42 | O=C(NCCCO)C1CCCN(S(=O)(=O)c2ccc3ccccc3c2)C1 (stereo not drawn) [N-(3-hydroxypropyl)-1-(2-naphthylsulfonyl)-3-piperidinecarboxamide] |
| 19.23 | 39.41 | CCOC(=O)c1c(NC(=O)/C=C/C(N)=O)sc(C)c1C [ethyl 2-[(4-amino-4-oxo-2-butenoyl)amino]-4,5-dimethyl-3-thiophenecarboxylate] |
